How the values were obtained:
[1] = target: T1, HiBiT-BRM fusion protein in stable HeLa cell line (Homo sapiens, UniProt P51531); assay: HiBiT-BRM cell-based degradation assay (Nano-Glo HiBiT Lytic Detection, 24 h); design: DC50: scale not given here; settings: HeLa HiBiT-BRM cells; for DC50: read-out: BRM HiBit Degradation IC50; for BRM HiBit Degradation Maximum (%): top dose 30 μM
T1 construct: expressed in transfected cells
Protocol: (§1) Procedure: A stable HeLa cell line expressing HiBiT-BRM was generated. On day 0, 5000 cells were seeded in 40 μL of media into each well of 384-well cell culture plates. On day 1, cells were treated with 120 nL DMSO or 120 nL of 3-fold serially DMSO-diluted compounds (10 points in duplicate with 30 μM as final top dose). Subsequently plates were incubated for 24 h in a standard tissue culture incubator and equilibrated at room temperature for 15 minutes. Nano-Glo HiBiT Lytic Detection System (Promega N3050) reagent was freshly prepared and 20 ul was added to each well. Upon addition of this LgBit-containing reagent, the HiBiT and LgBiT proteins associate to form the luminescent NanoBiT luciferase. The plates were shaken for 10 minutes at room temperature and the bioluminescence read using an EnVision plate reader (PerkinElmer).
The degradation % was calculated using the following formula: % degradation=100%−100%×(Lumsample−LumLC)/(LumHC−LumLC). DMSO treated cells are employed as High Control (HC) and 2 μM of a known BRM/BRG1 degrader standard treated cells are employed as Low Control (LC).

[2] = target: T2, HiBit-BRG1 fusion protein in stable HeLa cell line expressing HiBit-BRG1 and LgBit (Homo sapiens, UniProt P51532); assay: HiBiT-BRG1 cell-based degradation assay (Nano-Glo HiBiT, 24 h); settings: HeLa HiBit-BRG1/LgBit cells; for DC50: read-out: BRMG1 HiBit Degradation IC50; for Dmax: top dose 30 μM, read-out: BRG1 HiBit Degradation Maximum (%)
T2 construct: expressed in transfected cells
T2 sequence (P51532 whole entry, the tested form may be a part): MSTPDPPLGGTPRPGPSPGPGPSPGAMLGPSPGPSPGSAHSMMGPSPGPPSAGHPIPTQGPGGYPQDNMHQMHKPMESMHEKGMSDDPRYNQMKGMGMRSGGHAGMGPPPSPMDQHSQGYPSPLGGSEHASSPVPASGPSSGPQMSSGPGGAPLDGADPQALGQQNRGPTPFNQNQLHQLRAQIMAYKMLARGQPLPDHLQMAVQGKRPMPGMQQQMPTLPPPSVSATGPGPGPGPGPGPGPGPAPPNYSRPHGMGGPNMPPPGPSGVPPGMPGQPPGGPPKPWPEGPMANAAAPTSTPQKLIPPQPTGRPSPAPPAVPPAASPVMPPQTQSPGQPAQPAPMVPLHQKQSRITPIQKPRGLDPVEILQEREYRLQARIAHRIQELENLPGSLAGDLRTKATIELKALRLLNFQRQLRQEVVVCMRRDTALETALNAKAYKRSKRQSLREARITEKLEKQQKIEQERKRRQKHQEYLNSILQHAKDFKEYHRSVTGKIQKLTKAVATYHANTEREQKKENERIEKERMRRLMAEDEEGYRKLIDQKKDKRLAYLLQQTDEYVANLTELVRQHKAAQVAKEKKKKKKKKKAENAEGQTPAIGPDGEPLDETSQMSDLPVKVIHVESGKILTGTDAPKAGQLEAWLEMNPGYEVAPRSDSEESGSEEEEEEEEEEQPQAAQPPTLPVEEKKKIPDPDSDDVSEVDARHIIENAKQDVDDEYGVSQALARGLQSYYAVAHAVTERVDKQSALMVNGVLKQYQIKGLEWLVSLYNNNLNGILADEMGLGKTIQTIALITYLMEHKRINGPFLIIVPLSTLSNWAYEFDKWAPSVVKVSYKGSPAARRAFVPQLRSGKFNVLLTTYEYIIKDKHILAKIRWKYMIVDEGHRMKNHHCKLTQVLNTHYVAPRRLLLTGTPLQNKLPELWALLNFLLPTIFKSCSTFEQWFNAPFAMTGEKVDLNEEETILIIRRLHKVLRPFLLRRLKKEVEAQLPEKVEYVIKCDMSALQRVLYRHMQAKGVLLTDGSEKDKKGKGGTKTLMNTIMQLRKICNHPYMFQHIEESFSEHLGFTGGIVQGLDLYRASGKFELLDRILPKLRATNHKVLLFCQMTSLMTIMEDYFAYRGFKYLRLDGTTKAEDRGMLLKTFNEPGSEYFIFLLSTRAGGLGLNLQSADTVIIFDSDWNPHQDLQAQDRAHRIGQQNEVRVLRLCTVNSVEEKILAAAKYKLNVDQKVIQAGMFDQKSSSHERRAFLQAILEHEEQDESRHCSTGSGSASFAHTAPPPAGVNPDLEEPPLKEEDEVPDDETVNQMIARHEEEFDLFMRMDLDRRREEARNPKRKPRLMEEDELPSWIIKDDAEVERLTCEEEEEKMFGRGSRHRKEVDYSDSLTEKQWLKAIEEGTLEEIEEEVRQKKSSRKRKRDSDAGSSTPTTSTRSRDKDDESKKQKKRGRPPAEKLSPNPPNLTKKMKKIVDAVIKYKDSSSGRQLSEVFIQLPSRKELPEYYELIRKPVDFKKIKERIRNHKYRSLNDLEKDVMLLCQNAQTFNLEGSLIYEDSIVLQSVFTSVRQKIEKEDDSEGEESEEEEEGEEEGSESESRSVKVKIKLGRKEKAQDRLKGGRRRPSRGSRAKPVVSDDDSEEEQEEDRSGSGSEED
Protocol: as §1, with “On day 1, cells were treated with 120 nL DMSO or 120 nL of 3-fold serially DMSO-diluted compounds (10 points in duplicate with 30 μM as final top dose).” left out, “(PerkinElmer). For measurement of BRG1 degradation, a stable HeLa cell line expressing HiBit-BRG1 and LgBit was generated. The same protocol as above was then followed. The degradation % was calculated using the following formula: % degradation=100%−100%×(Lumsample−LumLC)/(LumHC−LumLC). DMSO treated cells are employed as High Control (HC) and 2 μM of a known BRM/BRG1 degrader standard treated cells are employed as Low Control (LC).” for “(PerkinElmer).”

T1 sequence (P51531 whole entry, the tested form may be a part): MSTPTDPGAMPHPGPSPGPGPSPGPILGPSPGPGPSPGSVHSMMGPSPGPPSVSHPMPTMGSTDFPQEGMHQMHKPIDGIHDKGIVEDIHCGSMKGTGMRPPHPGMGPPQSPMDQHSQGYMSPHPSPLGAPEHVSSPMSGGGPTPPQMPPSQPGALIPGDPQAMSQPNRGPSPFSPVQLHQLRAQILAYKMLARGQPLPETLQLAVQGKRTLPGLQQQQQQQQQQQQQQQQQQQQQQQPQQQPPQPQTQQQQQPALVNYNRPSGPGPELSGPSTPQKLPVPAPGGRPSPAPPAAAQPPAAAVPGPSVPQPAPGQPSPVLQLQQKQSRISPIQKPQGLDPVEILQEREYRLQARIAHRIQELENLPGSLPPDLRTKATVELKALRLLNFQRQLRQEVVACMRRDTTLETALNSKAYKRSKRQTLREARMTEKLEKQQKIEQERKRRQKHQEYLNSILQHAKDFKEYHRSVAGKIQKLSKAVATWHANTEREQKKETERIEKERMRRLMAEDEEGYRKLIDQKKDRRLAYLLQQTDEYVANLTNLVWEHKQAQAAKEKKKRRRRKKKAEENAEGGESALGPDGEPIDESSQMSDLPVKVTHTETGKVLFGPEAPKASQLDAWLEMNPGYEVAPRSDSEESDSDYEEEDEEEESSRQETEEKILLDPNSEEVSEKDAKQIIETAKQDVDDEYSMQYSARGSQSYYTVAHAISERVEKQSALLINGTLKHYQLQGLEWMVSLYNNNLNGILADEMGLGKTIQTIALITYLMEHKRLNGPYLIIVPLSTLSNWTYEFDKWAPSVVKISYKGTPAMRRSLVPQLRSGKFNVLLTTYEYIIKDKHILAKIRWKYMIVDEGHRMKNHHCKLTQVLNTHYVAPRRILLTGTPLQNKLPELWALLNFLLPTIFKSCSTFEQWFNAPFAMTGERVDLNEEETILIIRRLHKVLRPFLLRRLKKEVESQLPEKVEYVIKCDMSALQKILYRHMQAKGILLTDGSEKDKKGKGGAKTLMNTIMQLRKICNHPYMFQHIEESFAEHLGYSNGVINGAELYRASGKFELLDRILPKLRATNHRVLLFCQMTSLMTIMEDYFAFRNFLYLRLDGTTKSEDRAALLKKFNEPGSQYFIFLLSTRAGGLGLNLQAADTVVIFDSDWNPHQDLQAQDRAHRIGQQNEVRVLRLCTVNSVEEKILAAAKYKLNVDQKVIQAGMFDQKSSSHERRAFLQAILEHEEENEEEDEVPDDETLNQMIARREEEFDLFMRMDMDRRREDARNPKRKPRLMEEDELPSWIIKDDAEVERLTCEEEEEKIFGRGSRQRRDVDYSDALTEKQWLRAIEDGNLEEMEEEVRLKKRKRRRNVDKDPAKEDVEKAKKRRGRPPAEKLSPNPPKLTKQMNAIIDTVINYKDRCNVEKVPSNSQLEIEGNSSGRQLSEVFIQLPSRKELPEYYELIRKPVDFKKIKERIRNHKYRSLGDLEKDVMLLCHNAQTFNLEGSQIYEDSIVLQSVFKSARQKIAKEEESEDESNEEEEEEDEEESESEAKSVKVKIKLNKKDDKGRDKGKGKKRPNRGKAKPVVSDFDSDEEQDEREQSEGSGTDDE

Compound | DC50 [1] | BRM HiBit Degradation Maximum (%) [1] | DC50 [2] | Dmax [2]
Cc1ncsc1-c1ccc([C@H](C)NC(=O)[C@@H]2C[C@@H](O)CN2C(=O)[C@@H](c2cc(N3CC4(CC(Oc5ccc6nnc(-c7ccccc7O)cc6c5)C4)C3)no2)C(C)C)cc1 [Compound 184, (2S,4R)-4-hydroxy-1-((R)-2-(3-(6-((3-(2-hydroxyphenyl)cinnolin-6-yl)oxy)-2-azaspiro[3.3]heptan-2-yl)isoxazol-5-yl)-3-methylbutanoyl)-N-((S)-1-(4-(4-methylthiazol-5-yl)phenyl)ethyl)pyrrolidine-2-carboxamide] | < 0.01 µM | A (“A” indicates maximum degradation ≥75%) | > 0.01 µM | > 50%
C#Cc1cc2cc(-c3ccccc3O)nnc2cc1N1CC2(CN(c3cc([C@H](C(=O)N4C[C@H](O)C[C@H]4C(=O)N[C@@H](C)c4ccc(-c5scnc5C)cc4)C(C)C)on3)C2)C1 [Compound 239, (2S,4R)-1-((R)-2-(3-(6-(6-ethynyl-3-(2-hydroxyphenyl)cinnolin-7-yl)-2,6-diazaspiro[3.3]heptan-2-yl)isoxazol-5-yl)-3-methylbutanoyl)-4-hydroxy-N-((S)-1-(4-(4-methylthiazol-5-yl)phenyl)ethyl)pyrrolidine-2-carboxamide] | < 0.01 µM | A (“A” indicates maximum degradation ≥75%) | > 0.01 µM | > 50%
Cc1ncsc1-c1ccc([C@H](C)NC(=O)[C@@H]2C[C@@H](O)CN2C(=O)[C@@H](c2cc(N3CCN([C@H]4CCN(c5ccc6cc(-c7ccccc7O)nnc6c5)CC4(F)F)CC3)no2)C(C)C)cc1 [Compound 115, (2S,4R)-1-((R)-2-(3-(4-((S)-3,3-difluoro-1-(3-(2-hydroxyphenyl)cinnolin-7-yl)piperidin-4-yl)piperazin-1-yl)isoxazol-5-yl)-3-methylbutanoyl)-4-hydroxy-N-((S)-1-(4-(4-methylthiazol-5-yl)phenyl)ethyl)pyrrolidine-2-carboxamide] | < 0.01 µM | A (“A” indicates maximum degradation ≥75%) | < 0.01 µM | > 75%
Cc1ncsc1-c1ccc([C@H](C)NC(=O)[C@@H]2C[C@@H](O)CN2C(=O)[C@@H](c2cc(C3CC4(C3)CN(c3ccc5cc(-c6ccccc6O)nnc5c3)C4)no2)C(C)C)cc1 [Compound 199, (2S,4R)-4-hydroxy-1-((R)-2-(3-(2-(3-(2-hydroxyphenyl)cinnolin-7-yl)-2-azaspiro[3.3]heptan-6-yl)isoxazol-5-yl)-3-methylbutanoyl)-N-((S)-1-(4-(4-methylthiazol-5-yl)phenyl)ethyl)pyrrolidine-2-carboxamide] | < 0.01 µM | A (“A” indicates maximum degradation ≥75%) | > 0.01 µM | > 75%
Cc1ncsc1-c1ccc([C@H](C)NC(=O)[C@@H]2C[C@@H](O)CN2C(=O)[C@@H](c2cc(N3CCC4(CC3)CN(c3ccc5cc(-c6ccccc6O)nnc5c3)C4)no2)C(C)C)cc1 [Compound 53, (2S,4R)-4-hydroxy-1-((R)-2-(3-(2-(3-(2-hydroxyphenyl)cinnolin-7-yl)-2,7-diazaspiro[3.5]nonan-7-yl)isoxazol-5-yl)-3-methylbutanoyl)-N-((S)-1-(4-(4-methylthiazol-5-yl)phenyl)ethyl)pyrrolidine-2-carboxamide] | < 0.01 µM | A (“A” indicates maximum degradation ≥75%) | > 0.01 µM | > 50%
Cc1ncsc1-c1ccc([C@H](C)NC(=O)[C@@H]2C[C@@H](O)CN2C(=O)[C@@H](c2cc(N3CCC(C(=O)N4CC(c5ccc6cc(-c7ccccc7O)nnc6c5)C4)CC3)no2)C(C)C)cc1 [Compound 45] | < 0.01 µM | A (“A” indicates maximum degradation ≥75%) | > 0.01 µM | > 75%
Cc1ncsc1-c1ccc([C@H](C)NC(=O)[C@@H]2C[C@@H](O)CN2C(=O)[C@@H](c2cc(-c3cnc(N4CC(c5ccc6nnc(-c7ccccc7O)cc6c5)C4)nc3)no2)C(C)C)cc1 [Compound 4, (2S,4R)-4-hydroxy-1-[(2R)-2-[3-(2-{3-[3-(2-hydroxyphenyl)cinnolin-6-yl]azetidin-1-yl}pyrimidin-5-yl)-1,2-oxazol-5-yl]-3-methylbutanoyl]-N-[(1S)-1-[4-(4-methyl-1,3-thiazol-5-yl)phenyl]ethyl]pyrrolidine-2-carboxamide] | < 0.01 µM | A (“A” indicates maximum degradation ≥75%) | > 0.01 µM | > 75%
Cc1ncsc1-c1ccc([C@H](C)NC(=O)[C@@H]2C[C@@H](O)CN2C(=O)[C@@H](c2cc(N3CC4(CN(Cc5ccc6cc(-c7ccccc7O)nnc6c5)C4)C3)no2)C(C)C)cc1 [Compound 232, (2S,4R)-4-hydroxy-1-((R)-2-(3-(6-((3-(2-hydroxyphenyl)cinnolin-7-yl)methyl)-2,6-diazaspiro[3.3]heptan-2-yl)isoxazol-5-yl)-3-methylbutanoyl)-N-((S)-1-(4-(4-methylthiazol-5-yl)phenyl)ethyl)pyrrolidine-2-carboxamide] | > 0.01 µM | A (“A” indicates maximum degradation ≥75%) | – | < 50%
CC(C)[C@@H](C(=O)N1C[C@H](O)C[C@H]1C(=O)N[C@@H](C)c1ccc(F)cc1)n1cc(N2CC3(CN(c4ccc5cc(-c6ccccc6O)nnc5c4)C3)C2)nn1 [Compound 201, (2S,4R)-N-((S)-1-(4-fluorophenyl)ethyl)-4-hydroxy-1-((S)-2-(4-(6-(3-(2-hydroxyphenyl)cinnolin-7-yl)-2,6-diazaspiro[3.3]heptan-2-yl)-1H-1,2,3-triazol-1-yl)-3-methylbutanoyl)pyrrolidine-2-carboxamide] | < 0.01 µM | A (“A” indicates maximum degradation ≥75%) | > 0.01 µM | > 50%
CC(C)C(C(=O)N1C[C@H](O)C[C@H]1C(=O)N[C@@H](C)c1ccc(Cl)cc1)c1cc(N2CC3(CN(c4ccc5cc(-c6ccccc6O)nnc5c4)C3)C2)no1 (stereo partly drawn) [Compound 113, (2S,4R)-N-((S)-1-(4-chlorophenyl)ethyl)-4-hydroxy-1-(2-(3-(6-(3-(2-hydroxyphenyl)cinnolin-7-yl)-2,6-diazaspiro[3.3]heptan-2-yl)isoxazol-5-yl)-3-methylbutanoyl)pyrrolidine-2-carboxamide] | < 0.01 µM | A (“A” indicates maximum degradation ≥75%) | – | < 50%
CC(C)[C@@H](C(=O)N1C[C@H](O)C[C@H]1C(=O)N[C@@H](C)c1ccccc1)c1cc(N2CC[C@H](c3ccc4cc(-c5ccccc5O)nnc4c3)C2)no1 [Compound 118, (2S,4R)-4-hydroxy-1-((R)-2-(3-((R)-3-(3-(2-hydroxyphenyl)cinnolin-7-yl)pyrrolidin-1-yl)isoxazol-5-yl)-3-methylbutanoyl)-N-((S)-1-phenylethyl)pyrrolidine-2-carboxamide] | > 0.01 µM | A (“A” indicates maximum degradation ≥75%) | – | < 50%
COc1cc2cc(-c3ccccc3O)nnc2cc1N1CC2(CN(c3cc([C@H](C(=O)N4C[C@H](O)C[C@H]4C(=O)N[C@@H](C)c4ccc(-c5scnc5C)cc4)C(C)C)on3)C2)C1 [Compound 159, (2S,4R)-4-hydroxy-1-((R)-2-(3-(6-(3-(2-hydroxyphenyl)-6-methoxycinnolin-7-yl)-2,6-diazaspiro[3.3]heptan-2-yl)isoxazol-5-yl)-3-methylbutanoyl)-N-((S)-1-(4-(4-methylthiazol-5-yl)phenyl)ethyl)pyrrolidine-2-carboxamide] | < 0.01 µM | A (“A” indicates maximum degradation ≥75%) | < 0.01 µM | > 75%
Cc1ncsc1-c1ccc([C@@H](C)NC(=O)[C@H]2C[C@H](O)CN2C(=O)[C@H](C(C)C)n2cc(N3CC4(CN(c5ccc6nnc(-c7ccccc7O)cc6c5)C4)C3)cn2)cc1 [Compound 258, (2R,4S)-4-hydroxy-1-[(2S)-2-(4-{6-[3-(2-hydroxyphenyl)cinnolin-6-yl]-2,6-diazaspiro[3.3]heptan-2-yl}pyrazol-1-yl)-3-methylbutanoyl]-N-[(1R)-1-[4-(4-methyl-1,3-thiazol-5-yl)phenyl]ethyl]pyrrolidine-2-carboxamide] | > 0.01 µM | A (“A” indicates maximum degradation ≥75%) | > 0.01 µM | > 50%
